Series [1] is described as follows: Stability study in climate chamber (48-72 h, 40° C./75% RH), form assigned by XRPD. The conditions noted are these: for XRPD Form b: form assigned after the stability studies / XRPD Form c: form assigned after the stability studies: at 40° C./75% RH; for XRPD Form b: form assigned after the stability studies: samples from anti-solvent addition, label = form before stability; for Stability after storage in a climate chamber / XRPD pattern following storage exposure in the climate chamber: 48 to 72 hours at 40 degrees centigrade and 75% relative humidity.
Experimental: Solubility assessment experiments were carried out in a variety of solvents followed by storage in a climate chamber for 48 to 72 hours at 40 degrees centigrade and 75% relative humidity.

Series [2] is described as follows: Storage of samples under ambient conditions, form assigned by XRPD. The series is classed as physicochemical.
Setting [3] is: 1-1.5 weeks ambient, cooling-evaporative crystallization, Table 6, label = form after recrystallization.
Where [4] appears, read: 1-1.5 weeks ambient, slurry conversion, Table 9, label = form after slurry.
Setting [5] is: 48-72 H, samples from cooling-evaporative crystallization, Table 6, label = form after recrystallization.
Setting [6] is: 48-72 H, samples from slurry conversion, Table 9, label = form after slurry.
[7] abbreviates: 1-1.5 weeks ambient, cooling-evaporative crystallization, Table 7, label = form after recrystallization.
Where [8] appears, read: 48-72 H, samples from cooling-evaporative crystallization, Table 7, label = form after recrystallization.
Setting [9] is: 1.5-2 weeks ambient, solvent-drop grinding, Table 8, label = form after grinding.
The mark [10] stands for this setting: 46-72 H, samples from solvent-drop grinding, Table 8, label = form after grinding.

The structures appear in SMILES notation. “Also recorded” adds a separate entry of the source.

For `CC(C)[C@H](C(=O)Nc1ccc(C(=O)NO)cc1)c1ccccc1` [Form A2, (S)—N-hydroxy-4-(3-methyl-2-phenylbutanamido)benzamide], in series [1] (48-72 H, Table 3), the “XRPD Form b: form assigned after the stability studies” value is “Form A”.
Consider `CC(C)[C@H](C(=O)Nc1ccc(C(=O)NO)cc1)c1ccccc1` [Form H1, (S)—N-hydroxy-4-(3-methyl-2-phenylbutanamido)benzamide], for which the “XRPD Form b: form assigned after storage under ambient conditions” value (from here on “XRPD Form b: form assigned after storage”) in series [2] (setting [3]) and in series [2] (setting [4]) was “Form A” in each case. In addition, the “XRPD Form c: form assigned after the stability studies” value (“XRPD Form c: form assigned” for short) in series [1] (setting [5]) and in series [1] (setting [6]) was “Form A” in each case.
Turning to `CC(C)[C@H](C(=O)Nc1ccc(C(=O)NO)cc1)c1ccccc1` [Form L1, (S)—N-hydroxy-4-(3-methyl-2-phenylbutanamido)benzamide], the “XRPD Form b: form assigned after storage” value in series [2] (setting [3]) and in series [2] (setting [7]) was “Form L1” each time. The “XRPD Form c: form assigned” value in series [1] (setting [5]) and in series [1] (setting [8]) was “Form L1” each time. Further, in series [1], the “Stability after storage in a climate chamber” value (shortened to “Stability after storage”) is listed as “exhibited a particular degree of stability”.
For the molecule `CC(C)C(C(=O)Nc1ccc(C(=O)NO)cc1)c1ccccc1` (stereo not drawn) [Form A7 + Am], the “XRPD Form b: form assigned after storage” value in series [2] (setting [4]) is reported as “Form A3 + Am*”. For the same molecule, the “XRPD Form c: form assigned” value in series [1] (setting [6]) was “Form A + Am*”.
Take `CC(C)C(C(=O)Nc1ccc(C(=O)NO)cc1)c1ccccc1` (stereo not drawn) [Form A2 + Am]: the “XRPD Form b: form assigned after storage” value in series [2] (setting [3]) is reported as “Form U1 + Am”. Further, the “XRPD Form c: form assigned” value in series [1] (setting [5]) is “Form Z_wet**”.
As for `CC(C)[C@H](C(=O)Nc1ccc(C(=O)NO)cc1)c1ccccc1` [Form F2, (S)—N-hydroxy-4-(3-methyl-2-phenylbutanamido)benzamide], the “XRPD Form b: form assigned after storage” value in series [2] (setting [7]) was “Form A3”. In series [1] (setting [8]), the “XRPD Form c: form assigned” value is “Form A”.
In the case of `CC(C)[C@H](C(=O)Nc1ccc(C(=O)NO)cc1)c1ccccc1` [Form F3, (S)—N-hydroxy-4-(3-methyl-2-phenylbutanamido)benzamide], the “XRPD Form c: form assigned” value in series [1] (setting [8]) was “Form A”.
In the case of `CC(C)[C@H](C(=O)Nc1ccc(C(=O)NO)cc1)c1ccccc1` [Form F1, (S)—N-hydroxy-4-(3-methyl-2-phenylbutanamido)benzamide], in series [2] (setting [4]), the “XRPD Form b: form assigned after storage” value is reported as “Form A_wet**”. Besides, the “XRPD Form b: form assigned after the stability studies” value is “Form A + Am*” in series [1] (48-72 H, Table 3) and “Form A” in series [1] (48-72 H, Table 5). Further, the “XRPD Form c: form assigned” value in series [1] (setting [8]) and in series [1] (setting [6]) was “Form A” throughout.
With `CC(C)[C@H](C(=O)Nc1ccc(C(=O)NO)cc1)c1ccccc1` [Form M2, (S)—N-hydroxy-4-(3-methyl-2-phenylbutanamido)benzamide], the “XRPD Form b: form assigned after storage” value in series [2] (setting [7]) is recorded as “Form M2”. Further, the “XRPD Form c: form assigned” value in series [1] (setting [8]) was “Form M2”. In series [1], the “Stability after storage” value is “exhibited a particular degree of stability” and the “XRPD pattern following storage exposure in the climate chamber” value (“XRPD pattern following storage exposure” for short) is given as “remained unchanged”.
`CC(C)[C@H](C(=O)Nc1ccc(C(=O)NO)cc1)c1ccccc1` [Form Z_wet]: the “XRPD Form b: form assigned after storage” value in series [2] (setting [3]) is “Form U1 + Am*”. Further, the “XRPD Form c: form assigned” value in series [1] (setting [5]) is “Form Z_wet**”.
In the case of `CC(C)[C@H](C(=O)Nc1ccc(C(=O)NO)cc1)c1ccccc1` [Form A_minus, (S)—N-hydroxy-4-(3-methyl-2-phenylbutanamido)benzamide], the “XRPD Form b: form assigned after the stability studies” value in series [1] (48-72 H, Table 3) was “Form A_minus”. The “Stability after storage” value in series [1] is recorded as “exhibited a particular degree of stability”.
As for `CC(C)C(C(=O)Nc1ccc(C(=O)NO)cc1)c1ccccc1` (stereo not drawn) [Form S + Am], the “XRPD Form c: form assigned” value in series [1] (setting [8]) was “Form A_plus”.
Turning to `CC(C)C(C(=O)Nc1ccc(C(=O)NO)cc1)c1ccccc1` (stereo not drawn) [Form A + Form V], in series [2] (setting [9]), the “XRPD Form b: form assigned after storage” value is recorded as “Form A”. In addition, the “XRPD Form c: form assigned” value in series [1] (setting [10]) is “Form A”.
Regarding `CC(C)C(C(=O)Nc1ccc(C(=O)NO)cc1)c1ccccc1` (stereo not drawn) [Form W + Am], the “XRPD Form b: form assigned after the stability studies” value in series [1] (48-72 H, Table 3) was “Form A + Form”.
On to `CC(C)[C@H](C(=O)Nc1ccc(C(=O)NO)cc1)c1ccccc1` [Form R, (S)—N-hydroxy-4-(3-methyl-2-phenylbutanamido)benzamide], for which the “XRPD Form b: form assigned after storage” value in series [2] (setting [7]) is reported as “Form R”. The “XRPD Form c: form assigned” value in series [1] (setting [8]) was “Form A”.
For the molecule `CC(C)[C@H](C(=O)Nc1ccc(C(=O)NO)cc1)c1ccccc1` [Form M1, (S)—N-hydroxy-4-(3-methyl-2-phenylbutanamido)benzamide], the “XRPD Form b: form assigned after storage” value in series [2] (setting [7]) is “Form M1”. Also, in series [1] (setting [8]), the “XRPD Form c: form assigned” value was “Form M1”. Besides, in series [1], the “Stability after storage” value is “exhibited a particular degree of stability” and the “XRPD pattern following storage exposure” value is “remained unchanged”.
With `CC(C)[C@H](C(=O)Nc1ccc(C(=O)NO)cc1)c1ccccc1` [Form H2, (S)—N-hydroxy-4-(3-methyl-2-phenylbutanamido)benzamide], the “XRPD Form b: form assigned after storage” value in series [2] (setting [9]) is given as “Form A2”. Moreover, the “XRPD Form c: form assigned” value in series [1] (setting [10]) is listed as “Form A”.
With `CC(C)C(C(=O)Nc1ccc(C(=O)NO)cc1)c1ccccc1` (stereo not drawn) [Form A + Form H1], in series [1] (48-72 H, Table 3), the “XRPD Form b: form assigned after the stability studies” value is recorded as “Form A”.
Turning to `CC(C)[C@H](C(=O)Nc1ccc(C(=O)NO)cc1)c1ccccc1` [Form K_wet], the “XRPD Form b: form assigned after storage” value in series [2] (setting [3]) is listed as “Form A”. Moreover, in series [1] (setting [5]), the “XRPD Form c: form assigned” value is “Form A”.
With `CC(C)[C@H](C(=O)Nc1ccc(C(=O)NO)cc1)c1ccccc1` [Form X_gel, (S)—N-hydroxy-4-(3-methyl-2-phenylbutanamido)benzamide], in series [2] (setting [3]), the “XRPD Form b: form assigned after storage” value is recorded as “Form U2 + Am*”. In addition, in series [1] (setting [5]), the “XRPD Form c: form assigned” value is “Form A_wet**”.
Take `CC(C)[C@H](C(=O)Nc1ccc(C(=O)NO)cc1)c1ccccc1` [Wet sample]: the “XRPD Form b: form assigned after storage” value in series [2] (setting [3]) is “Form D1_wet**”. Moreover, the “XRPD Form b: form assigned after the stability studies” value in series [1] (48-72 H, Table 3) is reported as “Form A + Am*; also recorded: Form W + Am*”. Further, in series [1] (setting [5]), the “XRPD Form c: form assigned” value was “Form A”.
On to `CC(C)[C@H](C(=O)Nc1ccc(C(=O)NO)cc1)c1ccccc1` [Form T_wet, (S)—N-hydroxy-4-(3-methyl-2-phenylbutanamido)benzamide], for which the “XRPD Form b: form assigned after the stability studies” value in series [1] (48-72 H, Table 5) is given as “Form A”.
Take `CC(C)[C@H](C(=O)Nc1ccc(C(=O)NO)cc1)c1ccccc1` [Form G_gel, (S)—N-hydroxy-4-(3-methyl-2-phenylbutanamido)benzamide]: in series [1] (48-72 H, Table 3), the “XRPD Form b: form assigned after the stability studies” value is “Form A + Am*”.
For `CC(C)C(C(=O)Nc1ccc(C(=O)NO)cc1)c1ccccc1` (stereo not drawn) [Form A3 + Am], in series [1] (setting [6]), the “XRPD Form c: form assigned” value was “Form A”.
Regarding `CC(C)C(C(=O)Nc1ccc(C(=O)NO)cc1)c1ccccc1` (stereo not drawn) [Form A + Form J1], in series [1] (setting [8]), the “XRPD Form c: form assigned” value is given as “Form J1”.
For the molecule `CC(C)[C@H](C(=O)Nc1ccc(C(=O)NO)cc1)c1ccccc1` [Form D1_wet], the “XRPD Form b: form assigned after storage” value in series [2] (setting [3]) is reported as “Form D1_wet**”; in series [2] (setting [7]), “Form D1_wet”. In series [1] (48-72 H, Table 3), the “XRPD Form b: form assigned after the stability studies” value is “Form D2”. For the same molecule, the “XRPD Form c: form assigned” value in series [1] (setting [5]) was “Form A_wet**”; in series [1] (setting [8]), “Form A + Am*”.
Regarding `CC(C)[C@H](C(=O)Nc1ccc(C(=O)NO)cc1)c1ccccc1` [Form A8, (S)—N-hydroxy-4-(3-methyl-2-phenylbutanamido)benzamide], the “XRPD Form b: form assigned after storage” value in series [2] (setting [7]) is on record as “Form A8”. The “XRPD Form c: form assigned” value in series [1] (setting [8]) is given as “Form A”.
The corresponding values for `CC(C)[C@H](C(=O)Nc1ccc(C(=O)NO)cc1)c1ccccc1` [Form A7, (S)—N-hydroxy-4-(3-methyl-2-phenylbutanamido)benzamide] are “Form A7” and “Form A_plus”.
In the case of `CC(C)[C@H](C(=O)Nc1ccc(C(=O)NO)cc1)c1ccccc1` [Form J1, (S)—N-hydroxy-4-(3-methyl-2-phenylbutanamido)benzamide], the “XRPD Form b: form assigned after storage” value in series [2] (1-1.5 weeks ambient, cooling-evaporative crystallization, Table 7, label = form after recrystallization, slurry in dimethoxyethane/methanol) is “Form J2”; in series [2] (setting [4]), “Form J1”; in series [2] (setting [9]), “Form J1”. For the same molecule, the “XRPD Form c: form assigned” value in series [1] (setting [6]) is “Form J1”. Besides, in series [1], the “Stability after storage” value is “exhibited a particular degree of stability”. In series [1], the “XRPD pattern following storage exposure” value is “remained unchanged”.
On to `CC(C)[C@H](C(=O)Nc1ccc(C(=O)NO)cc1)c1ccccc1` [Form A_min + Form T], for which the “XRPD Form c: form assigned” value in series [1] (setting [10]) is listed as “Form A5a”.
On to `CC(C)[C@H](C(=O)Nc1ccc(C(=O)NO)cc1)c1ccccc1` [Form L2, (S)—N-hydroxy-4-(3-methyl-2-phenylbutanamido)benzamide], for which, in series [1], the “Stability after storage” value was “exhibited a particular degree of stability”.
As for `CC(C)C(C(=O)Nc1ccc(C(=O)NO)cc1)c1ccccc1` (stereo not drawn) [Form B1 + Form F5], the “XRPD Form b: form assigned after the stability studies” value in series [1] (48-72 H, Table 3) is reported as “Form A”.

For the origin of these results see patent US20140271604A1, “HDAC Inhibitor Polymorphic Forms and Methods of Use” (priority 2013, published 2014).
